# Measurements reported in patent publication US6713444B1 (priority 1999, dated 2004).
# Ends that are not written are not given here.
# Experiments:
# Bttxs = conditions: cited from earlier work
# BttxB = BttxB (Clostridium botulinum, UniProt P10844); type: biochemical
# [1] = rat, in vivo, ip
# Chain of BttxB (P10844 2-441 limits assumed): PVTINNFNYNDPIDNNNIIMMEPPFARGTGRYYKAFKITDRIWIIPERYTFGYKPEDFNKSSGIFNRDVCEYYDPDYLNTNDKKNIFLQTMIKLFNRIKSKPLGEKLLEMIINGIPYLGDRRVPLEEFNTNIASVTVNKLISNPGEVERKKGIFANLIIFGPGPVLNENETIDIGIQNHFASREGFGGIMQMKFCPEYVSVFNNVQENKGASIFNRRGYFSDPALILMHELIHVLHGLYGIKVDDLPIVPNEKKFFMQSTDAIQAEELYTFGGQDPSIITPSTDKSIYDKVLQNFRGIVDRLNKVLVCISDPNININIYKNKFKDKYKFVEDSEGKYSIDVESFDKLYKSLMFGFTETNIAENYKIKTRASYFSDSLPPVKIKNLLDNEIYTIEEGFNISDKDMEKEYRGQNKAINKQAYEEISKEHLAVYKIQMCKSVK
compound,measurement,setting,value
C[C@H](CS)C(=O)N1CCC[C@H]1C(=O)O [captopril],inhibition of Bttxs (in words),Bttxs,not effective inhibitors
Substance P [reference compound],substrate of BttxB,BttxB,not a substrate
ThrArgSerSerArgAlaGlyLeuGlnPheProValGlyArgValHisArgLerLeuArgLysGlyAsnTyr [Peptide 24],effectiveness as inhibitor of BttxB activity relative to B-I,BttxB,about 25%
same,substrate of BttxB,BttxB,not substrates
CC(C)C[C@H](NC(=O)CNC(=O)[C@H](C)NC(=O)[C@H](CCCNC(=N)N)NC(=O)[C@H](CO)NC(=O)[C@H](CO)NC(=O)[C@H](CCCNC(=N)N)NC(=O)[C@@H](NC(=O)[C@H](CCCCN)NC(=O)[C@H](C)NC(=O)[C@H](CCCCN)NC(=O)[C@H](C)NC(=O)[C@H](CCCNC(=N)N)NC(=O)[C@@H](NC(=O)[C@H](CCCCN)NC(=O)CNC(=O)CNC(=O)[C@H](CCC(N)=O)NC(=O)[C@H](CCCCN)NC(=O)CNC(=O)[C@H](CCCNC(=N)N)NC(=O)CNC(=O)[C@H](C)N)C(C)C)[C@@H](C)O)C(=O)N[C@@H](CCC(N)=O)C(=O)N[C@@H](Cc1ccccc1)C(=O)N1CCC[C@H]1C(=O)N[C@H](C(=O)NCC(=O)N[C@@H](CCCNC(=N)N)C(=O)N[C@H](C(=O)N[C@@H](Cc1c[nH]cn1)C(=O)N[C@@H](CCCNC(=N)N)C(=O)N[C@@H](CC(C)C)C(=O)N[C@@H](CC(C)C)C(=O)N[C@@H](CCCNC(=N)N)C(=O)N[C@@H](CCCCN)C(=O)NCC(=O)N[C@@H](CC(N)=O)C(=O)N[C@@H](Cc1ccc(O)cc1)C(=O)O)C(C)C)C(C)C [Buforin I],Plateau (time to reach maximal-plateau level),[1],≤ 40 min
same,time the maximal-plateau level was maintained,[1],up to 4 h
same,time to reach ½ the absorbed maximal value,[1],7.7 min
same,inhibition of BttxB endoprotease activity (in words),BttxB,dose-dependency and competitively inhibits
same,substrate of BttxB,BttxB,not to be a substrate
AlaGlyArgGlyLysGlnGlyGlyLysValArgAlaLysAlaLysThrArgSerSerArgAlaGlyLeuGlnPheProValGlyArgValHisArgLeuLeuArglys [Peptide 36],effectiveness as inhibitor of BttxB activity relative to B-I,BttxB,about 50%
same,substrate of BttxB,BttxB,not substrates
TRSRAKGLQFPGLLVHRKGNY [OSP],inhibition of BttxB endoprotease activity (in words),BttxB,inhibition
CC(C)C[C@H](NP(=O)(O)O[C@@H]1O[C@@H](C)[C@H](O)[C@@H](O)[C@H]1O)C(=O)N[C@@H](Cc1c[nH]c2ccccc12)C(=O)O [phosphoramidon],inhibition of Bttxs (in words),Bttxs,not effective inhibitors
